Test results published in patent US3972872A, “6-[α-(ω-Guanidinoalkanoylamido)acylamido]penicillanic acids” (Pfizer Inc., priority 1975, dated 1976).
≈ marks a conversion by molar mass, not a printed value. Structures can show the parent of a compound that is named as a salt. Where two headings read alike, the source gives them in different places.

Experiments:
[1] = system: E. coli 266; experiment: In vitro MIC, E. coli 266, two-fold serial dilution; format: cell-based, Escherichia coli; details: unit assumed
From the text: (§1) The in vitro spectra of a number of 6-[α-(ω-guanidinoalkanoylamido)acylamido]penicillanic acids of this invention against certain gram-negative bacteria are presented in Table I below. […] Th compounds of Table I have the formula

[2] = system: Pseudo. aeruginosa 490; experiment: In vitro MIC, Pseudo. aeruginosa 490; format: cell-based, Pseudomonas aeruginosa; details: unit assumed
From the text: as §1

[3] = system: Proteus mirabilis C015; experiment: In vitro MIC, Proteus mirabilis C015; format: cell-based; details: unit assumed
From the text: as §1

[4] = system: Escherichia coli 266; experiment: In vivo protection of mice versus Escherichia coli 266; details: Escherichia coli, 266, sc, 96 h, read-out: % Protection
From the text: Additionally, the compounds of this invention are active versus gram-positive and gram-negative bacteria in vivo via the parenteral route of administration in animals, including man. Their in vivo activity in animals, including man, by the oral route of administration is more limited as regards susceptible organisms. Nevertheless, oral in vivo activity against Escherichia coli and Staphylococcus aureus is a common property of many compounds of this invention. Table II below presents the comparative in vivo spectra of several compounds within the scope of this invention against D-α-aminobenzylpenicillin (Ampicillin).
The acute systemic infections in mice were produced by the intraperitoneal inoculation of standardized cultures suspended in 5% hog gastric mucin. Treatment with the drugs was initiated 0.5 hours after inoculation of the infecting organism. A second dose was administered 4 hours later. The PD50 values were calculated after a hold period of 4 days.

[5] = system: Pseudo. aeruginosa 104; experiment: In vitro MIC, Pseudo. aeruginosa 104; format: cell-based, Pseudomonas aeruginosa; details: unit assumed
From the text: as §1

[6] = system: Pseudo. aeruginosa 173; experiment: In vitro MIC, Pseudo. aeruginosa 173; format: cell-based, Pseudomonas aeruginosa; details: unit assumed
From the text: as §1

[7] = system: Proteus vulgaris A059; experiment: In vitro MIC, Proteus vulgaris A059; format: cell-based; details: unit assumed
From the text: as §1

[8] = system: Proteus rettgeri B006; experiment: In vitro MIC, Proteus rettgeri B006; format: cell-based; details: unit assumed
From the text: (§2) The in vitro activity of the herein-described compounds renders them useful for topical application in the form of ointments, creams and the like, or for sterilization purposes, e.g., sick room utensils.
as §1

[9] = system: Proteus mirabilis C020; experiment: In vitro MIC, Proteus mirabilis C020; format: cell-based; details: unit assumed
From the text: as §2, §1

[10] = system: Serratia marcescens A001; experiment: In vitro MIC, Serratia marcescens A001; format: cell-based; details: unit assumed
From the text: as §1

[11] = 50 mg./kg., mice, subcutaneous route

Row | SMILES | MIC [1] [µg/mL] | MIC [2] [µg/mL] | MIC [3] [µg/mL] | responders at 50 mg/kg [4, 11] [%] | MIC [5] [µg/mL] | MIC [6] [µg/mL] | MIC [7] [µg/mL] | MIC [8] [µg/mL] | MIC [9] [µg/mL] | MIC [10] [µg/mL] | responders at 50 mg/kg [4] [%]
1 | CC(C)(C)C(=O)OCOC(=O)[C@@H]1N2C(=O)[C@@H](NC(=O)[C@H](NC(=O)CNC(=N)N)c3ccccc3)[C@H]2SC1(C)C [CH2 NH--C(NH)NH2, R=POM, 6-[D-2-Phenyl-2-(Guanidinoacetamido)Acetamido]Penicillanic Acid, Pivaloyloxymethyl Ester, Hydrochloride] | 25 | 0.78 | 50 | 90 | – | – | – | – | – | – | –
2 | CN(CC(=O)N[C@@H](C(=O)N[C@@H]1C(=O)N2[C@@H]1SC(C)(C)[C@@H]2C(=O)O)c1ccccc1)C(=N)N [CH2 N(CH3)--C(NH)NH2, R=H, 6-{D-2-Phenyl-2-[(1-Methylguanidino)Acetamido]Acetamido}-Penicillanic Acid] | 6.25 (≈ 13.5 µM) | 3.12 (≈ 6.75 µM) | 6.25 (≈ 13.5 µM) | – | 50 (≈ 108 µM) | 12.5 (≈ 27 µM) | 6.25 (≈ 13.5 µM) | 100 (≈ 216 µM) | 6.25 (≈ 13.5 µM) | 3.12 (≈ 6.75 µM) | 60
3 | CC1(C)S[C@@H]2[C@H](NC(=O)[C@H](NC(=O)C3CCC(NC(=N)N)CC3)c3ccccc3)C(=O)N2[C@H]1C(=O)O (stereo partly drawn) [NH--C(NH)NH2 [3rd of 4], R=H] | 6.25 (≈ 12.1 µM) | 6.25 (≈ 12.1 µM) | 6.25 (≈ 12.1 µM) | 50 | 3.12 (≈ 6.04 µM) | 1.56 (≈ 3.02 µM) | 50 (≈ 96.8 µM) | 50 (≈ 96.8 µM) | 25 (≈ 48.4 µM) | 12.5 (≈ 24.2 µM) | –
4 | CC1(C)S[C@@H]2[C@H](NC(=O)[C@H](NC(=O)CNC3=NCCN3)c3ccccc3)C(=O)N2[C@H]1C(=O)O [CH2 NH--.angle..vertline., R=H, 6-[D-2-Phenyl-2-(2-Imidazolinylaminoacetamido)Acetamido]Penicillanic Acid] | 12.5 (≈ 26.3 µM) | 3.12 (≈ 6.57 µM) | 3.12 (≈ 6.57 µM) | – | 6.25 (≈ 13.2 µM) | 3.12 (≈ 6.57 µM) | 3.12 (≈ 6.57 µM) | 100 (≈ 211 µM) | 6.25 (≈ 13.2 µM) | 25 (≈ 52.7 µM) | 90
5 | CC(C)(C)C(=O)OCOC(=O)[C@@H]1N2C(=O)[C@@H](NC(=O)[C@H](NC(=O)CCNC(=N)N)c3ccccc3)[C@H]2SC1(C)C [CH2 CH2 NH--C(NH)NH2, R=POM, Hydrochloride] | 6.25 | 6.25 | 0.39 | 100 | – | – | – | – | – | – | –
6 | CC1(C)S[C@@H]2[C@H](NC(=O)[C@H](NC(=O)CCNC(=N)N)c3ccccc3)C(=O)N2[C@H]1C(=O)O [CH2 CH2 NH--C(NH)NH2, R=H, 6-[D-2-Phenyl-2-(Guanidinopropionamido)Acetamido]Penicillanic Acid] | 3.12 (≈ 6.75 µM) | 3.12 (≈ 6.75 µM) | 0.78 (≈ 1.69 µM) | 70 | 6.25 (≈ 13.5 µM) | 3.12 (≈ 6.75 µM) | 3.12 (≈ 6.75 µM) | 50 (≈ 108 µM) | 12.5 (≈ 27 µM) | 6.25 (≈ 13.5 µM) | –
7 | CC1(C)S[C@@H]2[C@H](NC(=O)[C@H](NC(=O)CN3CCNC3=N)c3ccccc3)C(=O)N2[C@H]1C(=O)O [CH2 --N--C(NH)--NHCH2 CH2, R=H] | 6.25 (≈ 13.2 µM) | 3.12 (≈ 6.57 µM) | 3.12 (≈ 6.57 µM) | – | 12.5 (≈ 26.3 µM) | 12.5 (≈ 26.3 µM) | 6.25 (≈ 13.2 µM) | – | – | 12.5 (≈ 26.3 µM) | 100
8 | CC1(C)S[C@@H]2[C@H](NC(=O)[C@H](NC(=O)c3ccc(NC(=N)N)cc3)c3ccccc3)C(=O)N2[C@H]1C(=O)O [NH--C(NH)NH2 [1st of 4], R=H] | 3.12 (≈ 6.11 µM) | 0.78 (≈ 1.53 µM) | 3.12 (≈ 6.11 µM) | 10 | 0.78 (≈ 1.53 µM) | 0.78 (≈ 1.53 µM) | 6.25 (≈ 12.2 µM) | 25 (≈ 49 µM) | 12.5 (≈ 24.5 µM) | 3.12 (≈ 6.11 µM) | –
